Test results from PubChem BioAssay (NCI).
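Grown in 96-well plates, cells were treated for 48 hours with each compound at five concentrations. Insufficient inhibition: endpoint recorded as highest concentration tested. TGI denotes the concentration required for complete inhibition of growth.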

What was measured:
Assay in all cases: DTP human tumour cell line panel, 48 h
A549 NSCLC = tested on: A549 NSCLC
DMS 114 small cell lung = tested on: DMS 114 small cell lung
DMS 273 small cell lung = tested on: DMS 273 small cell lung
EKVX NSCLC = tested on: EKVX NSCLC
HCT-116 colon = tested on: HCT-116 colon
HOP-62 NSCLC = tested on: HOP-62 NSCLC
HT29 colon = tested on: HT29 colon
KM20L2 colon = tested on: KM20L2 colon
MALME-3M melanoma = tested on: MALME-3M melanoma
MOLT-4 leukemia = tested on: MOLT-4 leukemia
NCI-H460 lung = tested on: NCI-H460 lung
OVCAR-3 ovarian = tested on: OVCAR-3 ovarian
OVCAR-8 ovarian = tested on: OVCAR-8 ovarian
RPMI-8226 leukemia = tested on: RPMI-8226 leukemia
SF-295 CNS = tested on: SF-295 CNS
SF-539 CNS = tested on: SF-539 CNS
SNB-19 CNS = tested on: SNB-19 CNS
SNB-75 CNS = tested on: SNB-75 CNS
SW-620 colon = tested on: SW-620 colon
XF 498 CNS = tested on: XF 498 CNS

| SMILES | TGI (A549 NSCLC) | TGI (DMS 114 small cell lung) | TGI (DMS 273 small cell lung) | TGI (EKVX NSCLC) | TGI (HCT-116 colon) | TGI (HOP-62 NSCLC) | TGI (HT29 colon) | TGI (KM20L2 colon) | TGI (MALME-3M melanoma) | TGI (MOLT-4 leukemia) | TGI (NCI-H460 lung) | TGI (OVCAR-3 ovarian) | TGI (OVCAR-8 ovarian) | TGI (RPMI-8226 leukemia) | TGI (SF-295 CNS) | TGI (SF-539 CNS) | TGI (SNB-19 CNS) | TGI (SNB-75 CNS) | TGI (SW-620 colon) | TGI (XF 498 CNS) |
| --- | --- | --- | --- | --- | --- | --- | --- | --- | --- | --- | --- | --- | --- | --- | --- | --- | --- | --- | --- | --- |
| Cn1c(=O)c2nc(NCCO)cnc2n(C)c1=O | > 100 µM | > 100 µM | > 100 µM | > 100 µM | > 100 µM | > 100 µM | > 100 µM | > 100 µM | > 100 µM | > 100 µM | > 100 µM | 57.9 µM | > 100 µM | > 100 µM | > 100 µM | 88.7 µM | > 100 µM | 42.4 µM | > 100 µM | > 100 µM |
| O=C1CSC(C(N=Nc2ccc(Cl)cc2)c2nc3ccccc3[nH]2)=N1 (stereo not given) | > 100 µM | 58.5 µM | > 100 µM | > 100 µM | > 100 µM | > 100 µM | > 100 µM | > 100 µM | > 100 µM | 39.8 µM | > 100 µM | > 100 µM | > 100 µM | > 100 µM | > 100 µM | 52.9 µM | > 100 µM | 90.2 µM | > 100 µM | 45.9 µM |
| Cc1cc2c(C(C)C)c(O)c(O)c(C=Nc3ccccc3)c2c(O)c1-c1c(C)cc2c(C(C)C)c(O)c(O)c(C=Nc3ccccc3)c2c1O | > 100 µM | > 100 µM | > 100 µM | > 100 µM | > 100 µM | > 100 µM | > 100 µM | > 100 µM | > 100 µM | > 100 µM | > 100 µM | > 100 µM | > 100 µM | > 100 µM | > 100 µM | > 100 µM | > 100 µM | > 100 µM | > 100 µM | > 100 µM |
